Results: patent US20210047297A1, “4-(3-AMINO-6-FLUORO-1H-INDAZOL-5-YL)-1,2,6-TRIMETHYL-1,4-DIHYDROPYRIDINE-3,5-DIC ARBONITRILE COMPOUNDS FOR TREATING HYPERPROLIFERATIVE DISORDERS” (Bayer Pharma Aktiengesellschaft, priority 2018, published 2021)

Each compound was assayed against T1, GST-AMPKα2/ß1/γ1 complex (full-length human AMPKα2) (Homo sapiens, UniProt P54619+P54646+Q9Y478) (assay: AMPK high ATP assay (TR-FRET-based AMPK activity inhibition assay)). Conditions: ATP concentration of 1 mM; median; read-out: AMPK high ATP assay IC50 [mol/l] (median).
T1 construct: purchased Carna Biosciences 02-114; host or cells: baculovirus expression system
T1 sequence (P54646 whole entry): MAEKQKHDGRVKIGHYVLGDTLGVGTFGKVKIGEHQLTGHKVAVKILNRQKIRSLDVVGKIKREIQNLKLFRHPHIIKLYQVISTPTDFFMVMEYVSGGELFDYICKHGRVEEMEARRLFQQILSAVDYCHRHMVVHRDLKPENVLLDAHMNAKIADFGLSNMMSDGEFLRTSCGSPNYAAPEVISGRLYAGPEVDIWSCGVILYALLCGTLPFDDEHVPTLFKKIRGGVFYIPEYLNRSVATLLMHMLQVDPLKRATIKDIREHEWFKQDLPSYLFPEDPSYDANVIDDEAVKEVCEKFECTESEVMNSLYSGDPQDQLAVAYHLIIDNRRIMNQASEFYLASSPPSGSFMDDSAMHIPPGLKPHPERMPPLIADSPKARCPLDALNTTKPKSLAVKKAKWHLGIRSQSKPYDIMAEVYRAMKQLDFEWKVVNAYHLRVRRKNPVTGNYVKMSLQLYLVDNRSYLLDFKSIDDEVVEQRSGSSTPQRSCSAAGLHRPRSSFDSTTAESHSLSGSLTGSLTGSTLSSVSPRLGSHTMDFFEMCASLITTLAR
T1 sequence (Q9Y478 whole entry partner): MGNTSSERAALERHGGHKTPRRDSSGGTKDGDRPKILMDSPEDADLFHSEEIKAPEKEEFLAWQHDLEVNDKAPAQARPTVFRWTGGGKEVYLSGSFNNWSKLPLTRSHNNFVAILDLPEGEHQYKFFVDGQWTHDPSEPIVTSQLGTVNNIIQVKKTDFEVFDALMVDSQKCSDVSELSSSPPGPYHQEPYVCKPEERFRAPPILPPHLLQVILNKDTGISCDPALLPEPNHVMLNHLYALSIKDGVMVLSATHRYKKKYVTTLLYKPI
T1 sequence (P54619 whole entry partner): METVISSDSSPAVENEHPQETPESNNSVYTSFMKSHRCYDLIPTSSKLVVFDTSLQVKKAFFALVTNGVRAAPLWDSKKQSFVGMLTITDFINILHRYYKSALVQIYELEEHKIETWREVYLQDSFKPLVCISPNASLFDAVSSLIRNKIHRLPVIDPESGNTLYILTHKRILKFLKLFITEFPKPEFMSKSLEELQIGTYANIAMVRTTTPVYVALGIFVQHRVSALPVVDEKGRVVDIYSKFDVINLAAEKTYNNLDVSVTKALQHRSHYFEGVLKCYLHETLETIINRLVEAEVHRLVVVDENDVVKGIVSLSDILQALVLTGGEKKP
Format: biochemical
Procedure: AMPK inhibitory activity of compounds of the present invention at an ATP concentration of 1 mM was quantified employing the TR-FRET-based AMPK activity inhibition assay as described in the following paragraphs.
Recombinant fusion protein of N-terminal Glutathion-S-Transferase (GST) and full-length human AMPKα2 [1-552(end) amino acids of accession number NP_006243.2] co-expressed with GST-PRKAB1 [1-270(end) amino acids of accession number NP_006244.2] and PRKAG1 [1-331(end) amino acids of accession number NP_002724.1] using a baculovirus expression system, purified as GST-AMPKα2/ß1/γ1 complex by using glutathione sepharose chromatography, activated with His-tagged CaMKK1 and subsequently purified by using glutathione sepharose chromatography, was purchased from Carna Biosciences (product number 02-114) and used as kinase. As substrate for the kinase reaction biotinylated peptide biotin-Ahx-HMRSAMSFAEPG (C-terminus in amide form) was used which can be purchased e.g. form the company Biosyntan (Berlin-Buch, Germany). For the assay 50 nl of a 100 fold concentrated solution of the test compound in DMSO was pipetted into either a black low volume 384 well microtiter plate or a black 1536 well microtiter plate (both Greiner Bio-One, Frickenhausen, Germany), 2 μl of a solution of GST-AMPKα2/ß1/γ1 in aqueous assay buffer [50 mM Hepes pH 7.5, 10 mM MgCl2, 5 mM β-glycerophosphate, 2.5 mM dithiothreitol (DTT), 0.5 mM EGTA, 0.01% (w/v) bovine γ-globulin (Sigma-Aldrich, #G5009), 0.01% (v/v) Triton X-100 (Sigma-Aldrich, #T9284)] were added and the mixture was incubated for 15 min at 22° C. to allow pre-binding of the test compounds to the enzyme before the start of the kinase reaction. Then the kinase reaction was started by the addition of 3 μl of a solution of adenosine-tri-phosphate (ATP, 1.67 mM=>final conc. in the 5 μl assay volume is 1 mM), adenosine-mono-phosphate (AMP, 3.33 μM=>final conc. in the 5 μl assay volume is 2 μM), and substrate (0.83 μM=>final conc. in the 5 μl assay volume is 0.5 μM) in assay buffer and the resulting mixture was incubated for a reaction time of 30 min at 22° C. The concentration of GST-AMPK α2/ß1/γ1 was adjusted depending of the activity of the enzyme lot and was chosen appropriate to have the assay in the linear range, a typical concentration was 0.08 nM. The reaction was stopped by the addition of 3 μl of a solution of TR-FRET detection reagents (0.2 μM streptavidine-XL665 [Cisbio Bioassays, Codolet, France] and 3.33 nM anti-phosho-Serine antibody [Merck Millipore, “STK antibody”, cat. #35-002] and 3.33 nM anti mouse IgG-Tb cryptate, a Terbium-cryptate labelled anti-mouse IgG antibody [Cisbio Bioassays, Codolet, France] in an aqueous EDTA-solution (166.7 mM EDTA, 0.06 (w/v) bovine serum albumin in 50 mM HEPES pH 7.5).
The resulting mixture was incubated 1 h at 22° C. to allow the formation of complex between the phosphorylated biotinylated peptide and the detection reagents. Subsequently the amount of phosphorylated substrate was evaluated by measurement of the resonance energy transfer from the Tb-cryptate to the streptavidine-XL665. Therefore, the fluorescence emissions at 620 nm and 665 nm after excitation at 350 nm was measured in a TR-FRET reader, e.g. a Pherastar FS (BMG Labtechnologies, Offenburg, Germany) or a Viewlux (Perkin-Elmer). The ratio of the emissions at 665 nm and at […] was taken as the measure for the amount of phosphorylated substrate. The data were normalised (enzyme reaction without inhibitor=0 inhibition, all other assay components but no enzyme=100% inhibition).
For `CCn1nc(C)cc1C(=O)Nc1n[nH]c2c(C(F)(F)F)c(F)c(C3C(C#N)=C(C)N(C)C(C)=C3C#N)cc12` [Example 33, N-[5-(3,5-dicyano-1,2,6-trimethyl-1,4-dihydropyridin-4-yl)-6-fluoro-7-(trifluoromethyl)-1H-indazol-3-yl]-1-ethyl-3-methyl-1H-pyrazole-5-carboxamide], the IC50 was 25 nM.
`CCn1nc(C)cc1C(=O)Nc1n[nH]c2c(C)c(F)c(C3C(C#N)=C(C)N(C)C(C)=C3C#N)cc12` [Example 5, N-[5-(3,5-dicyano-1,2,6-trimethyl-1,4-dihydropyridin-4-yl)-6-fluoro-7-methyl-1H-indazol-3-yl]-1-ethyl-3-methyl-1H-pyrazole-5-carboxamide] showed an IC50 of 3.74 nM.
In the case of `CCc1c(F)c(C2C(C#N)=C(C)N(C)C(C)=C2C#N)cc2c(NC(=O)c3cc(C)nn3CC)n[nH]c12` [Example 30, N-[5-(3,5-dicyano-1,2,6-trimethyl-1,4-dihydropyridin-4-yl)-7-ethyl-6-fluoro-1H-indazol-3-yl]-1-ethyl-3-methyl-1H-pyrazole-5-carboxamide], the IC50 is reported as 68.6 nM.
With `CC1=C(C#N)C(c2cc3c(NC(=O)c4ccccc4Cl)n[nH]c3c(C(F)(F)F)c2F)C(C#N)=C(C)N1C` [Example 32, 2-chloro-N-[5-(3,5-dicyano-1,2,6-trimethyl-1,4-dihydropyridin-4-yl)-6-fluoro-7-(trifluoromethyl)-1H-indazol-3-yl]benzamide] the IC50 was 10.5 nM.
Work on `CC1=C(C#N)C(c2cc3c(NC(=O)C45C6C7C4C4C5C6C74C(=O)N4CCC4)n[nH]c3c(C)c2F)C(C#N)=C(C)N1C` (centres unmarked) [Example 23, 4-(azetidine-1-carbonyl)-N-[5-(3,5-dicyano-1,2,6-trimethyl-1,4-dihydropyridin-4-yl)-6-fluoro-7-methyl-1H-indazol-3-yl]cubane-1-carboxamide] yielded an IC50 of 105 nM.
`CCn1nc(C)cc1C(=O)Nc1n[nH]c2c(I)c(F)c(C3C(C#N)=C(C)N(C)C(C)=C3C#N)cc12` [Example 1, N-[5-(3,5-dicyano-1,2,6-trimethyl-1,4-dihydropyridin-4-yl)-6-fluoro-7-iodo-1H-indazol-3-yl]-1-ethyl-3-methyl-1H-pyrazole-5-carboxamide] gave an IC50 of 62.6 nM.
In the case of `CC1=C(C#N)C(c2cc3c(NC(=O)c4cnn(CCN5CCCC5)c4C(F)(F)F)n[nH]c3c(C)c2F)C(C#N)=C(C)N1C` [Example 19, N-[5-(3,5-dicyano-1,2,6-trimethyl-1,4-dihydropyridin-4-yl)-6-fluoro-7-methyl-1H-indazol-3-yl]-1-[2-(pyrrolidin-1-yl)ethyl]-5-(trifluoromethyl)-1H-pyrazole-4-carboxamide], the IC50 is reported as 37.6 nM.
For `CC1=C(C#N)C(c2cc3c(NC(=O)c4c(F)cccc4F)n[nH]c3c(C)c2F)C(C#N)=C(C)N1C` [Example 7, N-[5-(3,5-dicyano-1,2,6-trimethyl-1,4-dihydropyridin-4-yl)-6-fluoro-7-methyl-1H-indazol-3-yl]-2,6-difluorobenzamide], the IC50 was 19.6 nM.
`CC1=C(C#N)C(c2cc3c(NC(=O)c4cc(F)ccc4C(F)(F)F)n[nH]c3c(C)c2F)C(C#N)=C(C)N1C` [Example 10, N-[5-(3,5-dicyano-1,2,6-trimethyl-1,4-dihydropyridin-4-yl)-6-fluoro-7-methyl-1H-indazol-3-yl]-5-fluoro-2-(trifluoromethyl)benzamide] was tested, and the IC50 was 26.2 nM.
Compound `CC1=C(C#N)C(c2cc3c(NC(=O)c4cn(C)nc4C(F)(F)F)n[nH]c3c(I)c2F)C(C#N)=C(C)N1C` [Example 3, N-[5-(3,5-dicyano-1,2,6-trimethyl-1,4-dihydropyridin-4-yl)-6-fluoro-7-iodo-1H-indazol-3-yl]-1-methyl-3-(trifluoromethyl)-1H-pyrazole-4-carboxamide] has an IC50 of 54.3 nM.
`CCc1c(F)c(C2C(C#N)=C(C)N(C)C(C)=C2C#N)cc2c(NC(=O)c3c(F)cccc3F)n[nH]c12` [Example 26, N-[5-(3,5-dicyano-1,2,6-trimethyl-1,4-dihydropyridin-4-yl)-7-ethyl-6-fluoro-1H-indazol-3-yl]-2,6-difluorobenzamide] gave an IC50 of 38.1 nM.
With `CCn1cc(C(=O)Nc2n[nH]c3c(C)c(F)c(C4C(C#N)=C(C)N(C)C(C)=C4C#N)cc23)c(C)n1` [Example 12, N-[5-(3,5-dicyano-1,2,6-trimethyl-1,4-dihydropyridin-4-yl)-6-fluoro-7-methyl-1H-indazol-3-yl]-1-ethyl-3-methyl-1H-pyrazole-4-carboxamide] the IC50 was 15.7 nM.
`CCc1c(F)c(C2C(C#N)=C(C)N(C)C(C)=C2C#N)cc2c(NC(=O)c3ccccc3Cl)n[nH]c12` [Example 31, 2-chloro-N-[5-(3,5-dicyano-1,2,6-trimethyl-1,4-dihydropyridin-4-yl)-7-ethyl-6-fluoro-1H-indazol-3-yl]benzamide] gave an IC50 of 71.5 nM.
Compound `CC1=C(C#N)C(c2cc3c(NC(=O)c4ccccc4Cl)n[nH]c3c(C)c2F)C(C#N)=C(C)N1C` [Example 6, 2-chloro-N-[5-(3,5-dicyano-1,2,6-trimethyl-1,4-dihydropyridin-4-yl)-6-fluoro-7-methyl-1H-indazol-3-yl]benzamide] has an IC50 of 3.65 nM.
